# Results reported in patent US10836769B2, “Substituted pyrrolizine compounds and uses thereof” (Gilead Sciences, Inc., priority 2018, dated 2020).
# Like-named read-outs stand apart in the source and are kept apart here.
# Legend:
# [1] = Kinetic Solubility; type: physicochemical; details: kinetic from dmso stock, 0.2 to 100 μM, BD Gentest Solubility Scanner
# Method: The 10 mM DMSO stock solution of the test compound is serially diluted into a 96-well “DMSO stock dilution plate”. Then Pipette 2 μL from the DMSO stock dilution plate into the “Sample plate” and dilute with 198 µL of the assay media to generate the final concentrations of the test compound ranging from 0.2 to 100 μM. The “Sample plate” is run on a BD Gentest Solubility Scanner.
# [2] = test system: HBV; assay: HBV DNA Quantification Assay; type: cell-based; details: Hepatitis B virus, 120 h; HepG2 cell line overexpressing NTCP infected with HBV AD38 viral particles; HBV DNA in culture supernatant after 5 days; geometric mean of a minimum of four determinations; read-out: EC50
# How it was run: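 NTCP-overexpressing HepG2 cells were infected with AD38 virus at 4000 genome equivalents/cell for 4 days, then reseeded with serially diluted compound in 2% FBS/1% DMSO medium for 5 days. Supernatant HBV DNA was measured by QuantiGene 2.0 branched-DNA luminescence. EC50 came from four-parameter fits, as geometric means of ≥4 determinations.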
# [3] = aqueous buffer, pH = 7, read-out: Kinetic Solubility at pH = 7
# [4] = simulated gastric fluid, pH = 1, read-out: Kinetic Solubility at pH = 1
Structure (SMILES),"solubility kinetic [1, 3]","solubility kinetic [1, 4]",EC50 [2]
"Cc1c(C(=O)Nc2ccc(F)cc2)c2n(c1C(=O)C(=O)NC1(c3cnn[nH]3)CC(F)(F)C1)C[C@H]1C[C@@H]21 [Example 14, (1aS,6bR)-4-(2-((3,3-difluoro-1-(1H-1,2,3-triazol-4-yl)cyclobutyl)amino)-2-oxoacetyl)-N-(4-fluorophenyl)-5-methyl-1,1a,2,6b-tetrahydrocyclopropa[a]pyrrolizine-6-carboxamide]",61.4 µM,57.1 µM,2.6 nM
"Cc1c(C(=O)Nc2ccc(F)c(F)c2)c2n(c1C(=O)C(=O)NC1(c3nncs3)CC1)CCC2 [Example 43, 5-(2-((1-(1,3,4-thiadiazol-2-yl)cyclopropyl)amino)-2-oxoacetyl)-N-(3,4-difluorophenyl)-6-methyl-2,3-dihydro-1H-pyrrolizine-7-carboxamide]",72.8 µM,77.7 µM,12.8 nM
CNC(=O)C1(NC(=O)C(=O)c2c(C)c(C(=O)Nc3ccc(F)c(F)c3)c3n2[C@@H]2C[C@@H]2C3)CC(F)(F)C1 [Example 33],92.3 µM,92.1 µM,93.6 nM
